Holding throughout (settings): read-out: Stability
A short description of data set [1]: Metabolic stability in rat liver microsomes assessed as compound remaining at 1 uM after 30 mins by HPLC-MS/MS analysis. Type of data set: ADME.
The nature of data set [2]: Metabolic stability in BALB/c mouse liver microsomes assessed as compound remaining at 1 uM after 30 mins by HPLC-MS/MS analysis. The data set is classed as ADME, Microsome. On the technique in general: Microsomes from liver hold many membrane-bound enzymes, among them those of drug oxidation.
Data set [3] is described as follows: Metabolic stability in human liver microsomes assessed as compound remaining at 1 uM after 30 mins by HPLC-MS/MS analysis. The data set is classed as ADME.

Data on six molecules can be found in ChEMBL document CHEMBL3102791, “Synthesis and biological evaluation of 2-aminothiazole derivatives as antimycobacterial and antiplasmodial agents” (Bioorg Med Chem Lett, 2014).

As to `O=C(Nc1nc(-c2ccccn2)cs1)c1ccccc1`, the remaining at 0.5 h, 1 µM in data set [1] is 54.5%; in data set [2] it was 7.6%; in data set [3], 27.5%.
Turning to `O=C(Nc1nc(-c2ccccn2)cs1)c1cccc(Br)c1`, the remaining at 0.5 h, 1 µM in data set [1] was more than 99%; in data set [2], 82.4%; in data set [3], more than 99%.
`O=C(Nc1nc(-c2ccccn2)cs1)c1ccncc1`: the remaining at 0.5 h, 1 µM in data set [1] was 47.8%; in data set [2], 3.71%; in data set [3], 53.8%.
Turning to `N#Cc1ccc(C(=O)Nc2nc(-c3ccccn3)cs2)cc1`, the values for the remaining at 0.5 h, 1 µM in data set [1], in data set [2] and in data set [3] were 64.6%, 1.61% and 24.1%, respectively.
Turning to `O=C(Nc1nc(-c2ccccn2)cs1)c1ccc(Cl)cc1`, the remaining at 0.5 h, 1 µM was 42.1% in data set [1], 1.33% in data set [2] and 8.4% in data set [3].
On to `O=C(Nc1nc(-c2ccccn2)cs1)c1ccc(F)cc1`, for which the remaining at 0.5 h, 1 µM in data set [1] is 72.1%; in data set [2] it was 3.61%; in data set [3] it was 14.2%.
